We go through two compounds from patent publication US20080031955A1, “Product Comprising a Beta-Lactam Antibiotic” (priority 2004, published 2008).

Molecules are shown by their SMILES.

What all share (assay type): physicochemical
A short description of data set [1]: Acetone content of the dried product by gas chromatography. The protocol: The acetone content or concentration of organic solvent may be determined in any suitable manner, e.g. by gas chromatography.
The acetone content of the dried product was analysed using a Hewlett-Packard Gas Chromatograph, model 5890. As a sample solution was used a solution obtained by dissolving 0.500 g of product in 10.0 ml of water (with the aid of some drops of NaOH 1 N). As a standard (reference) solution was used a solution obtained by dissolving 0.5 g of acetone standard in 50.0 ml of water, from which 1.0 ml was taken and diluted with 50.0 ml water.

The nature of data set [2]: Color C400 measured at 400 nm (Ph. Eur.). The note with it: color measured at a wavelength of 400 nm. The source says: In a preferred embodiment, the product according to the invention has a C400≦0.20, wherein C400 is the color measured at a wavelength of 400 nm (Ph.Eur.). Preferably, the product has a C400≦0.15, preferably a C400≦0.10.
Data set [3] is described as follows: Water content (Karl Fisher) of the dried product. To be noted: after drying. The method, then: The wet cake was fluidised with air at ambient temperature during 15 to 30 minutes, after which it was fluidised with warm air (30-40° C.) during 45 to 75 minutes (air flow 1800 m^3/hr), until the water content was 5.2 wt. % (Karl Fisher).
(product temperature 40° C.). The final pressure was 20 mbar. […] The water content was 5.2 wt. % (Karl Fisher).

Consider `CC1=C(C(=O)O)N2C(=O)[C@@H](NC(=O)[C@H](N)c3ccccc3)[C@H]2SC1` [Comparative experiment A, cephalexin], for which the Acetone content is recorded as 500 mg/kg in data set [1] (dried cephalexin product) and 500 mg of acetone per kg of cephalexin in data set [1] (dried product, fluid bed dryer). The “C400 (Ph. Eur.)” value in data set [2] worked out at 0.025. Further, in data set [3], the “water content (Karl Fisher)” value turned out to be 5.2 wt. %.

`CC1=C(C(=O)O)N2C(=O)[C@@H](NC(=O)[C@H](N)c3ccccc3)[C@H]2SC1.O` [Example I, cephalexin] had an Acetone content in data set [1] (dried cephalexin product) of 10 mg/kg. Also, the “C400 (Ph. Eur.)” value in data set [2] is 0.026. Moreover, in data set [3], the “water content (Karl Fisher)” value turned out to be 5.2 wt. %.
